Experiment [1] concerns recombinant rhesus HPH protein. Nature of the experiment: Effect of additives on activity of recombinant rhesus HPH enzyme. It is filed as biochemical, rhesus monkey (Macaca mulatta).
The next experiment deals with rhesus HPH2 (Macaca mulatta, UniProt I2CX88). Nature of the experiment: biochemical. How it is done:
(§1) More specifically, the HPH enzyme assay is conducted in a multi-well plate format. In a suitable buffer, a peptide substrate for the HPH, and a substrate for a protein-based pull down assay, and HPH enzyme are incubated for a period of time and at a temperature sufficient to allow the hydroxylation of the proline-containing substrate to occur. After the incubation period (e.g., 45 min.) the reaction is quenched by the addition of a solution containing the detection reagents. In specific embodiments, the solution comprises EDTA (2.5 mM) and the detection reagents (GST-VBC, Streptavidin-allophycocyanin and Europium-labeled anti-GST Antibody). The detection method in this assay is time-resolved fluorescent assay in which the time-resolved fluorescent signal (excitation at 330 nm; emission at 620 and 665 nm) is read on a plate reader after […] of incubation. The ratio of signal at 665 nm to 620 nm is used to calculate the amount of peptide interaction with GST-VBC as a measure of protein hydroxylation.
(§2) In an exemplary assay, the assay is conducted in a 96 or 384-well plate format. In the 384-well scale, the reaction (10 μl) contains buffer (20 mM MOPS (pH 6.5), 1.5 mM magnesium chloride, 5 mM potassium chloride, 0.1% bovine serum albumin, 1 mM TCEP, 10 μM ferrous ammonium sulfate, and 2 mM sodium ascorbate), substrate (2 μM α-ketoglutarate and 60 nM HIF-1αs peptide (biotin-[…]), enzyme (e.g. 8 nM of HPH3), and an inhibitor from a DMSO solution (1% DMSO final in the assay). After 45 min, the reaction is quenched by the addition of EDTA (2.5 mM) and the detection reagents (GST-VBC, Streptavidin-allophycocyanin and Europium-labeled anti-GST Antibody). The time-resolved fluorescent signal (excitation at 330 nm; emission at 620 and 665 nm) is read on a plate reader after 1 h of incubation. The ratio of signal at 665 nm to 620 nm is used to calculate the amount of peptide interaction with GST-VBC as a measure of protein hydroxylation.
(§3) In the assay, the biotinylated substrate is captured by the Streptavidin which is attached to allophycocyanin. The VBC interacts with the substrate and the interaction is recognized through the aid of an anti GST antibody which is labeled with europium. […] The time-resolved fluorescent signal (excitation at 330 nm; emission at 620 and 665 nm) is read on a plate reader after 1 h of incubation. The ratio of signal at 665 nm to 620 nm is used to calculate the amount of peptide interaction with GST-VBC as a measure of protein hydroxylation.
(§4) The VBC protein complex was generated by co-expression of Glutathione S-Transferase-VHL (von Hippel Lindau), elongin B and elongin C in Escherichia coli followed by purification of the complex using glutathione affinity resin and size-exclusion chromatography.

For another experiment, the target named is rhesus HPH1 (Macaca mulatta, UniProt H9FPE3, INS27EP). Nature of the experiment: biochemical. How it is done: as §1, §2, §3, §4
The target of the next experiment is T1, rhesus HPH3 (Macaca mulatta, UniProt H9FPE4).
T1 construct: fused on or other part: GST tag, N- or C-terminal, for purification
As to the kind of experiment: TR-FRET HPH enzyme assay (VBC recognition of hydroxylated peptide), HPH3. It is filed as biochemical, rhesus monkey (Macaca mulatta). The conditions noted are these: recombinant rhesus HPH3, inhibitory activity.

pIC50: −log10 of the molar value. Like-named read-outs stand apart in the source and are kept apart here.

rhesus HPH2, sequence (I2CX88 1-426): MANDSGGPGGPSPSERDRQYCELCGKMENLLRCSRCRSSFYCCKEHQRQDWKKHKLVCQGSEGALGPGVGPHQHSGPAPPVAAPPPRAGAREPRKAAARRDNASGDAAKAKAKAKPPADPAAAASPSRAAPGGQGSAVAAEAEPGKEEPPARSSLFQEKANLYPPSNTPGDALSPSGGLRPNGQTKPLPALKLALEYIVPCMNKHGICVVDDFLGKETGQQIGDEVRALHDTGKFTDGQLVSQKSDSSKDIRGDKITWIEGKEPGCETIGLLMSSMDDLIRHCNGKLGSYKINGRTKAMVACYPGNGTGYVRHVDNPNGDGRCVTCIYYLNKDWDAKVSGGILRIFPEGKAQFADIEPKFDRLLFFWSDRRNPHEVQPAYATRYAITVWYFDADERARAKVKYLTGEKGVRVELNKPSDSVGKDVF
rhesus HPH1, sequence (H9FPE3 1-405, stated change not applied): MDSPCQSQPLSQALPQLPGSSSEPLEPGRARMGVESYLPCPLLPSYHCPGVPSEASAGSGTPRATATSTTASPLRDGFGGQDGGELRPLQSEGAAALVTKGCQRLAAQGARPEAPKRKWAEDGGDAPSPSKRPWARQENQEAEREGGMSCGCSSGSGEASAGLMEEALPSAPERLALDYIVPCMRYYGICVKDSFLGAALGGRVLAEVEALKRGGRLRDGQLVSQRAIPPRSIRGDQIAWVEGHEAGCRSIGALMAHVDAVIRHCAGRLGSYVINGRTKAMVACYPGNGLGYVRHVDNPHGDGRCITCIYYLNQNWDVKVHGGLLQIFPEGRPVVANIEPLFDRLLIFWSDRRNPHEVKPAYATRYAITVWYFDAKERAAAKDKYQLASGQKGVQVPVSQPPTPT
Procedure for rhesus HPH3: More specifically, the HPH enzyme assay is conducted in a multi-well plate format. In a suitable buffer, a peptide substrate for the HPH, and a substrate for a protein-based pull down assay, and HPH enzyme are incubated for a period of time and at a temperature sufficient to allow the hydroxylation of the proline-containing substrate to occur. After the incubation period (e.g., 45 min.) the reaction is quenched by the addition of a solution containing the detection reagents. In specific embodiments, the solution comprises EDTA (2.5 mM) and the detection reagents (GST-VBC, Streptavidin-allophycocyanin and Europium-labeled anti-GST Antibody). The detection method in this assay is time-resolved fluorescent assay in which the time-resolved fluorescent signal (excitation at 330 nm; emission at 620 and 665 nm) is read on a plate reader after 1 of incubation. The ratio of signal at 665 nm to 620 nm is used to calculate the amount of peptide interaction with GST-VBC as a measure of protein hydroxylation.
In an exemplary assay, the assay is conducted in a 96 or 384-well plate format. […]
In the assay, the biotinylated substrate is captured by the Streptavidin which is attached to allophycocyanin. […] The time-resolved fluorescent signal (excitation at 330 nm; emission at 620 and 665 nm) is read on a plate reader after 1 h of incubation. […]

`[Cl-].[Cl-].[Co+2]` [CoCl2]: in experiment [1], the “effect on enzyme activity” value is recorded as “inhibited enzyme activity”.

Consider `NNc1nncc2ccccc12` [Hydralazine], for which the pIC50 was 3.49 at rhesus HPH2 and 3.40 against rhesus HPH1.

As to `O=C(O)CCC(=O)O` [Succinate], the pIC50 at rhesus HPH2 (read-out: IC50 HPH2, recombinant rhesus HPH2, inhibitory activity) was 3.42; on rhesus HPH1 (read-out: IC50 HPH1, recombinant rhesus HPH1, inhibitory activity), 3.70; at rhesus HPH3, 4.10.

Regarding `[Fe+2]` [ferrous iron], the “effect on enzyme activity” value in experiment [1] (addition to recombinant rhesus HPH enzyme, isoform not stated) was “increased the activity of the enzyme”.

In general, pIC50 refers to the IC50 on a negative log10 scale, so that one unit is a factor of ten.

The values are drawn from patent US20100240069A1, “Drug Discovery Assay for Modulators of HIF-Prolyl Hydroxylase Activity” (Boehringer Ingelheim International GmbH, priority 2009, published 2010).
